Broadly, the Papp A→B is the apparent permeability from the apical to the basolateral side of a cell layer. A high value points to fast passage. As a reminder, the Papp B→A is how fast a substance crosses the layer from the basolateral side. In general, efflux ratio refers to the permeability from basolateral to apical divided by that in the opposite direction, in the common usage.

The results in this text go back to patent US12102648B2, “Orally-bioavailable nucleoside analogs” (priority 2021, dated 2024).

This series can be described thus: in vitro. It counts as in vitro ADME. The settings on record: human, Caco-2. The gist of the method: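 Permeability measured in both directions across 19-day Caco-2 layers with TEER above 600 […], incubated at 37° C without shaking; donor and receiver sampled at 10 and 90 min for LC/MS/MS. Derived values: Papp (cm/s), efflux ratio, recovery.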

Consider `CCCCCCCCCCCCCCCCCCOCCOP(=O)(O)OC[C@H]1O[C@@H](n2cnc3c(NC)nc(N)nc32)[C@](C)(F)[C@@H]1O` [Compound 254, ((2R,3R,4R,5R)-5-(2-amino-6-(methylamino)-9H-purin-9-yl)-4-fluoro-3-hydroxy-4-methyltetrahydrofuran-2-yl)methyl (2-(octadecyloxy)ethyl) hydrogen phosphate], for which the apparent permeability from apical to basolateral (Papp A→B) at 90 min came out at 2.2 ×10⁻⁶ cm/s, the Papp B→A at 90 min was found to be 1.7 ×10⁻⁶ cm/s and the efflux ratio at 90 min stood at 0.8.
In the same order, the values of `CC(C)CC(=O)N[C@H](C(=O)OC[C@H]1O[C@@](C#N)(c2ccc3c(N)ncnn23)[C@H](O)[C@@H]1O)C(C)C` [Compound 255, [(2R,3S,4R,5R)-5-{4-aminopyrrolo[2,1-f][1,2,4]triazin-7-yl}-5-cyano-3,4-dihydroxyoxolan-2-yl]methyl (2S)-3-methyl-2-(3-methylbutanamido)butanoate] are 2.1 ×10⁻⁶ cm/s, 5.3 ×10⁻⁶ cm/s and 2.5.
On to `N#C[C@@]1(c2ccc3c(N)ncnn23)O[C@H](COC(=O)CC2CCOCC2)[C@@H](O)[C@H]1O` [Compound 257, ((2R,3S,4R,5R)-5-(4-aminopyrrolo[2,1-f][1,2,4]triazin-7-yl)-5-cyano-3,4-dihydroxytetrahydrofuran-2-yl)methyl 2-(tetrahydro-2H-pyran-4-yl)acetate], for which the apical-to-basolateral permeability (Papp A→B) at 90 min is 0.03 ×10⁻⁶ cm/s, the Papp B→A at 90 min worked out at 1.4 ×10⁻⁶ cm/s and the efflux ratio at 90 min was 46.
In the same order, the values of `N#C[C@@]1(c2ccc3c(N)ncnn23)O[C@H](COC(=O)CC2CC2)[C@@H](O)[C@H]1O` [Compound 258, [(2R,3S,4R,5R)-5-{4-aminopyrrolo[2,1-f][1,2,4]triazin-7-yl}-5-cyano-3,4-dihydroxyoxolan-2-yl]methyl 2-cyclopropylacetate] are 0.09 ×10⁻⁶ cm/s, 0.3 ×10⁻⁶ cm/s and 3.5.
As to `N#C[C@@]1(c2ccc3c(N)ncnn23)O[C@H](COC(=O)CC2CCCC2)[C@@H](O)[C@H]1O` [Compound 259, ((2R,3S,4R,5R)-5-(4-aminopyrrolo[2,1-f][1,2,4]triazin-7-yl)-5-cyano-3,4-dihydroxytetrahydrofuran-2-yl)methyl 2-cyclopentylacetate], the apical-to-basolateral permeability (Papp A→B) at 90 min was 2 ×10⁻⁶ cm/s, the Papp B→A at 90 min came to 0.6 ×10⁻⁶ cm/s and the efflux ratio at 90 min stood at 0.3.
Take `N#C[C@@]1(c2ccc3c(N)ncnn23)O[C@H](COC(=O)CC2CCCCCC2)[C@@H](O)[C@H]1O` [Compound 261, ((2R,3S,4R,5R)-5-(4-aminopyrrolo[2,1-f][1,2,4]triazin-7-yl)-5-cyano-3,4-dihydroxytetrahydrofuran-2-yl)methyl 2-cycloheptylacetate]: the Papp A→B at 90 min worked out at 0.79 ×10⁻⁶ cm/s, the Papp B→A at 90 min came out at 1.1 ×10⁻⁶ cm/s and the efflux ratio at 90 min is 1.4.
In the case of `N#C[C@@]1(c2ccc3c(N)ncnn23)O[C@H](COC(=O)CC2CCC(F)(F)CC2)[C@@H](O)[C@H]1O` [Compound 262, ((2R,3S,4R,5R)-5-(4-aminopyrrolo[2,1-f][1,2,4]triazin-7-yl)-5-cyano-3,4-dihydroxytetrahydrofuran-2-yl)methyl 2-(4,4-difluorocyclohexyl)acetate], the Papp A→B at 90 min was 0.91 ×10⁻⁶ cm/s, the Papp B→A at 90 min came out at 4.4 ×10⁻⁶ cm/s and the efflux ratio at 90 min was found to be 4.8.
`N#C[C@@]1(c2ccc3c(N)ncnn23)O[C@H](COC(=O)CC23CC4CC(CC(C4)C2)C3)[C@@H](O)[C@H]1O` [Compound 263, ((2R,3S,4R,5R)-5-(4-aminopyrrolo[2,1-f][1,2,4]triazin-7-yl)-5-cyano-3,4-dihydroxytetrahydrofuran-2-yl)methyl 2-((3R,5R,7R)-adamantan-1-yl)acetate]: the Papp A→B at 90 min was found to be 13 ×10⁻⁶ cm/s, the Papp B→A at 90 min turned out to be 19 ×10⁻⁶ cm/s and the efflux ratio at 90 min stood at 1.5.
The corresponding values for `CCCCC(=O)Nc1ncnn2c([C@]3(C#N)O[C@H](CO)[C@@H](O)[C@H]3O)ccc12` [Compound 264, N-(7-((2R,3R,4S,5R)-2-cyano-3,4-dihydroxy-5-(hydroxymethyl)tetrahydrofuran-2-yl)pyrrolo[2,1-f][1,2,4]triazin-4-yl)pentanamide] are 0.03 ×10⁻⁶ cm/s, 0.53 ×10⁻⁶ cm/s and 20.
The corresponding values for `N#C[C@@]1(c2ccc3c(N)ncnn23)O[C@H](COC(=O)CC2CCC2)[C@@H](O)[C@H]1O` [Compound 265, ((2R,3S,4R,5R)-5-(4-aminopyrrolo[2,1-f][1,2,4]triazin-7-yl)-5-cyano-3,4-dihydroxytetrahydrofuran-2-yl)methyl 2-cyclobutylacetate] are 0.29 ×10⁻⁶ cm/s, 0.36 ×10⁻⁶ cm/s and 1.2.
In the same order, the values of `N#C[C@@]1(c2ccc3c(N)ncnn23)O[C@H](COC(=O)C[C@H]2CC[C@H](N)CC2)[C@@H](O)[C@H]1O` [Compound 266, ((2R,3S,4R,5R)-5-(4-aminopyrrolo[2,1-f][1,2,4]triazin-7-yl)-5-cyano-3,4-dihydroxytetrahydrofuran-2-yl)methyl 2-((1r,4R)-4-aminocyclohexyl)acetate] are 0.19 ×10⁻⁶ cm/s, 0.38 ×10⁻⁶ cm/s and 2.
For the compound `N#C[C@@]1(c2ccc3c(N)ncnn23)O[C@H](COC(=O)CC2CCNCC2)[C@@H](O)[C@H]1O` [Compound 267], the apparent permeability from apical to basolateral (Papp A→B) at 90 min stood at 0.42 ×10⁻⁶ cm/s, the Papp B→A at 90 min turned out to be 0.27 ×10⁻⁶ cm/s and the efflux ratio at 90 min is 0.65.
The corresponding values for `CS(=O)(=O)N1CCC(CC(=O)OC[C@H]2O[C@@](C#N)(c3ccc4c(N)ncnn34)[C@H](O)[C@@H]2O)CC1` [Compound 268, ((2R,3S,4R,5R)-5-(4-aminopyrrolo[2,1-f][1,2,4]triazin-7-yl)-5-cyano-3,4-dihydroxytetrahydrofuran-2-yl)methyl 2-(1-(methylsulfonyl)piperidin-4-yl)acetate] are 0.04 ×10⁻⁶ cm/s, 1.8 ×10⁻⁶ cm/s and 45.
In the same order, the values of `CC(C)(C(=O)OC[C@H]1O[C@@](C#N)(c2ccc3c(N)ncnn23)[C@H](O)[C@@H]1O)C1CCCCC1` [Compound 269, ((2R,3S,4R,5R)-5-(4-aminopyrrolo[2,1-f][1,2,4]triazin-7-yl)-5-cyano-3,4-dihydroxytetrahydrofuran-2-yl)methyl 2-cyclohexyl-2-methylpropanoate] are 15 ×10⁻⁶ cm/s, 20 ×10⁻⁶ cm/s and 1.3.
The corresponding values for `N#C[C@@]1(c2ccc3c(N)ncnn23)O[C@H](COC(=O)CC2CCC(C(F)(F)F)CC2)[C@@H](O)[C@H]1O` (stereo partly drawn) [Compound 270, ((2R,3S,4R,5R)-5-(4-aminopyrrolo[2,1-f][1,2,4]triazin-7-yl)-5-cyano-3,4-dihydroxytetrahydrofuran-2-yl)methyl 2-(4-(trifluoromethyl)cyclohexyl)acetate] are 1.9 ×10⁻⁶ cm/s, 6.9 ×10⁻⁶ cm/s and 3.7.
For `N#C[C@@]1(c2ccc3c(N)ncnn23)O[C@H](COC(=O)CC2CCC(C(F)(F)F)CC2)[C@@H](OC(=O)CC2CCC(C(F)(F)F)CC2)[C@H]1O` (stereo partly drawn) [Compound 271, (2R,3S,4R,5R)-5-(4-aminopyrrolo[2,1-f][1,2,4]triazin-7-yl)-5-cyano-4-hydroxy-2-((2-(4-(trifluoromethyl)cyclohexyl)acetoxy)methyl)tetrahydrofuran-3-yl 2-(4-(trifluoromethyl)cyclohexyl)acetate], the Papp A→B at 90 min was 0.06 ×10⁻⁶ cm/s, the Papp B→A at 90 min was 0.52 ×10⁻⁶ cm/s and the efflux ratio at 90 min was determined as 8.7.
Consider `CC1(C)CCC(CC(=O)OC[C@H]2O[C@@](C#N)(c3ccc4c(N)ncnn34)[C@H](O)[C@@H]2O)CC1` [Compound 272, ((2R,3S,4R,5R)-5-(4-aminopyrrolo[2,1-f][1,2,4]triazin-7-yl)-5-cyano-3,4-dihydroxytetrahydrofuran-2-yl)methyl 2-(4,4-dimethylcyclohexyl)acetate], for which the apparent permeability from apical to basolateral (Papp A→B) at 90 min was 1.2 ×10⁻⁶ cm/s, the Papp B→A at 90 min was 0.64 ×10⁻⁶ cm/s and the efflux ratio at 90 min was found to be 0.52.
The corresponding values for `CC1(CC(=O)OC[C@H]2O[C@@](C#N)(c3ccc4c(N)ncnn34)[C@H](O)[C@@H]2O)CCCCC1` [Compound 273, ((2R,3S,4R,5R)-5-(4-aminopyrrolo[2,1-f][1,2,4]triazin-7-yl)-5-cyano-3,4-dihydroxytetrahydrofuran-2-yl)methyl 2-(1-methylcyclohexyl)acetate] are 3.7 ×10⁻⁶ cm/s, 3.2 ×10⁻⁶ cm/s and 0.85.
In the same order, the values of `N#C[C@@]1(c2ccc3c(N)ncnn23)O[C@H](COC(=O)CC2(c3ccccc3)CCOCC2)[C@@H](O)[C@H]1O` [Compound 274, ((2R,3S,4R,5R)-5-(4-aminopyrrolo[2,1-f][1,2,4]triazin-7-yl)-5-cyano-3,4-dihydroxytetrahydrofuran-2-yl)methyl 2-(4-phenyltetrahydro-2H-pyran-4-yl)acetate] are 0.85 ×10⁻⁶ cm/s, 12 ×10⁻⁶ cm/s and 14.
The corresponding values for `C[C@@H](C(=O)OC[C@H]1O[C@@](C#N)(c2ccc3c(N)ncnn23)[C@H](O)[C@@H]1O)C1CCCCC1` [Compound 275, ((2R,3S,4R,5R)-5-(4-aminopyrrolo[2,1-f][1,2,4]triazin-7-yl)-5-cyano-3,4-dihydroxytetrahydrofuran-2-yl)methyl (R)-2-cyclohexylpropanoate] are 11 ×10⁻⁶ cm/s, 16 ×10⁻⁶ cm/s and 1.6.
`CCCCC(=O)Nc1ncnn2c([C@]3(C#N)O[C@H](COC(=O)C(C)C)[C@@H](O)[C@H]3O)ccc12` [Compound 276, ((2R,3S,4R,5R)-5-cyano-3,4-dihydroxy-5-(4-pentanamidopyrrolo[2,1-f][1,2,4]triazin-7-yl)tetrahydrofuran-2-yl)methyl isobutyrate]: the Papp A→B at 90 min is 0.36 ×10⁻⁶ cm/s, the Papp B→A at 90 min amounted to 2.9 ×10⁻⁶ cm/s and the efflux ratio at 90 min was 8.
